{"source": "ChEMBL document CHEMBL3425471", "about": "“Design, synthesis and biological evaluation of novel pyrazoline-containing derivatives as potential tubulin assembling inhibitors” (Eur J Med Chem, 2015)", "key": {"[1]": {"system": "HepG2", "assay": "Induction of apoptosis in human HepG2 cells assessed as necrotic cells at 0.05 uM after 24 hrs by AnnexinV-FITC/PI staining based flow cytometry (reference value: 1.63%)", "type": "functional"}, "[2]": {"system": "A549", "assay": "cells", "conditions": "Homo sapiens, A549, 24 h", "description": "Antiproliferative activity against human A549 cells assessed as reduction in cell viability after 24 hrs by MTT assay"}, "[3]": {"system": "HepG2", "assay": "Induction of apoptosis in human HepG2 cells assessed as necrotic cells at 0.03 uM after 24 hrs by AnnexinV-FITC/PI staining based flow cytometry (reference value: 1.63%)", "type": "functional"}, "[4]": {"system": "HepG2", "assay": "Cell cycle arrest in human HepG2 cells assessed as accumulation of cells at G2 phase of cell cycle at 0.05 uM after 48 hrs by propidium iodide staining based flow cytometry (reference value: 5.09%)", "type": "functional"}, "[5]": {"system": "HepG2", "assay": "Cell cycle arrest in human HepG2 cells assessed as accumulation of cells at S phase of cell cycle at 0.03 uM after 48 hrs by propidium iodide staining based flow cytometry (reference value: 19.71%)", "type": "functional"}, "[6]": {"target": "Tubulin (Bos taurus, UniProt Q6B856+Q862L2+Q862F3)", "assay": "Inhibition of bovine brain tubulin polymerization after 20 mins by turbidimetric analysis"}, "[7]": {"system": "HepG2", "assay": "Induction of apoptosis in human HepG2 cells assessed as early apoptotic cells at 0.03 uM after 24 hrs by AnnexinV-FITC/PI staining based flow cytometry (reference value: 3.89%)", "type": "functional"}, "[8]": {"system": "HepG2", "assay": "Cell cycle arrest in human HepG2 cells assessed as accumulation of cells at G2 phase of cell cycle at 0.03 uM after 48 hrs by propidium iodide staining based flow cytometry (reference value: 5.09%)", "type": "functional"}, "[9]": {"system": "HepG2", "assay": "Cell cycle arrest in human HepG2 cells assessed as accumulation of cells at G1 phase of cell cycle at 0.01 uM after 48 hrs by propidium iodide staining based flow cytometry (reference value: 75.2%)", "type": "functional"}, "[10]": {"system": "HepG2", "assay": "Cell cycle arrest in human HepG2 cells assessed as accumulation of cells at S phase of cell cycle at 0.01 uM after 48 hrs by propidium iodide staining based flow cytometry (reference value: 19.71%)", "type": "functional"}, "[11]": {"system": "HepG2", "assay": "Cell cycle arrest in human HepG2 cells assessed as accumulation of cells at G1 phase of cell cycle at 0.05 uM after 48 hrs by propidium iodide staining based flow cytometry (reference value: 75.2%)", "type": "functional"}, "[12]": {"system": "HepG2", "assay": "Induction of apoptosis in human HepG2 cells assessed as late apoptotic cells at 0.01 uM after 24 hrs by AnnexinV-FITC/PI staining based flow cytometry (reference value: 1.49%)", "type": "functional"}, "[13]": {"system": "HepG2", "assay": "Induction of apoptosis in human HepG2 cells assessed as late apoptotic cells at 0.03 uM after 24 hrs by AnnexinV-FITC/PI staining based flow cytometry (reference value: 1.49%)", "type": "functional"}, "[14]": {"system": "HepG2", "assay": "Induction of apoptosis in human HepG2 cells assessed as viable cells at 0.03 uM after 24 hrs by AnnexinV-FITC/PI staining based flow cytometry (reference value: 93.0%)", "type": "functional", "conditions": "HepG2, 24 h, read-out: Activity"}, "[15]": {"system": "HepG2", "assay": "Cell cycle arrest in human HepG2 cells assessed as accumulation of cells at G1 phase of cell cycle at 0.03 uM after 48 hrs by propidium iodide staining based flow cytometry (reference value: 75.2%)", "type": "functional"}, "[16]": {"system": "HepG2", "assay": "Induction of apoptosis in human HepG2 cells assessed as viable cells at 0.05 uM after 24 hrs by AnnexinV-FITC/PI staining based flow cytometry (reference value: 93.0%)", "type": "functional", "conditions": "HepG2, 24 h, read-out: Activity"}, "[17]": {"system": "HepG2", "assay": "Induction of apoptosis in human HepG2 cells assessed as early apoptotic cells at 0.05 uM after 24 hrs by AnnexinV-FITC/PI staining based flow cytometry (reference value: 3.89%)", "type": "functional"}, "[18]": {"system": "HepG2", "assay": "Cell cycle arrest in human HepG2 cells assessed as accumulation of cells at S phase of cell cycle at 0.05 uM after 48 hrs by propidium iodide staining based flow cytometry (reference value: 19.71%)", "type": "functional"}, "[19]": {"system": "HepG2", "assay": "Induction of apoptosis in human HepG2 cells assessed as late apoptotic cells at 0.05 uM after 24 hrs by AnnexinV-FITC/PI staining based flow cytometry (reference value: 1.49%)", "type": "functional"}, "[20]": {"system": "HepG2", "assay": "cells", "conditions": "Homo sapiens, HepG2, 24 h", "description": "Antiproliferative activity against human HepG2 cells assessed as reduction in cell viability after 24 hrs by MTT assay"}, "[21]": {"system": "HepG2", "assay": "Induction of apoptosis in human HepG2 cells assessed as early apoptotic cells at 0.01 uM after 24 hrs by AnnexinV-FITC/PI staining based flow cytometry (reference value: 3.89%)", "type": "functional"}, "[22]": {"system": "HepG2", "assay": "Induction of apoptosis in human HepG2 cells assessed as necrotic cells at 0.01 uM after 24 hrs by AnnexinV-FITC/PI staining based flow cytometry (reference value: 1.63%)", "type": "functional"}, "[23]": {"system": "MCF7", "assay": "cells", "conditions": "Homo sapiens, MCF7, 24 h", "description": "Antiproliferative activity against human MCF7 cells assessed as reduction in cell viability after 24 hrs by MTT assay"}, "[24]": {"system": "HepG2", "assay": "Induction of apoptosis in human HepG2 cells assessed as viable cells at 0.01 uM after 24 hrs by AnnexinV-FITC/PI staining based flow cytometry (reference value: 93.0%)", "type": "functional", "conditions": "HepG2, 24 h, read-out: Activity"}, "[25]": {"system": "HepG2", "assay": "Cell cycle arrest in human HepG2 cells assessed as accumulation of cells at G2 phase of cell cycle at 0.01 uM after 48 hrs by propidium iodide staining based flow cytometry (reference value: 5.09%)", "type": "functional"}}}
{"smiles": "COc1ccc(C2=NN(C(=O)c3cc(OC)c(OC)c(OC)c3)C(c3ccc4c(c3)OCO4)C2)cc1", "note": "(stereo not given)", "values": [{"measurement": "Activity", "setting": "[1]", "value": 4.86, "unit": "%"}, {"measurement": "IC50", "setting": "[2]", "value": 70, "unit": "nM"}, {"measurement": "Activity", "setting": "[3]", "value": 3.76, "unit": "%"}, {"measurement": "Activity", "setting": "[4]", "value": 52.2, "unit": "%"}, {"measurement": "Activity", "setting": "[5]", "value": 14.28, "unit": "%"}, {"measurement": "IC50", "setting": "[6]", "value": 1880, "unit": "nM"}, {"measurement": "Activity", "setting": "[7]", "value": 8.72, "unit": "%"}, {"measurement": "Activity", "setting": "[8]", "value": 50.11, "unit": "%"}, {"measurement": "Activity", "setting": "[9]", "value": 68.96, "unit": "%"}, {"measurement": "Activity", "setting": "[10]", "value": 25.06, "unit": "%"}, {"measurement": "Activity", "setting": "[11]", "value": 34.65, "unit": "%"}, {"measurement": "Activity", "setting": "[12]", "value": 1.92, "unit": "%"}, {"measurement": "Activity", "setting": "[13]", "value": 2.52, "unit": "%"}, {"measurement": "viability at 0.03 µM", "setting": "[14]", "value": 85, "unit": "%"}, {"measurement": "Activity", "setting": "[15]", "value": 35.62, "unit": "%"}, {"measurement": "viability at 0.05 µM", "setting": "[16]", "value": 76.4, "unit": "%"}, {"measurement": "Activity", "setting": "[17]", "value": 13.4, "unit": "%"}, {"measurement": "Activity", "setting": "[18]", "value": 13.14, "unit": "%"}, {"measurement": "Activity", "setting": "[19]", "value": 5.34, "unit": "%"}, {"measurement": "IC50", "setting": "[20]", "value": 30, "unit": "nM"}, {"measurement": "Activity", "setting": "[21]", "value": 5.12, "unit": "%"}, {"measurement": "Activity", "setting": "[22]", "value": 1.75, "unit": "%"}, {"measurement": "IC50", "setting": "[23]", "value": 50, "unit": "nM"}, {"measurement": "viability at 0.01 µM", "setting": "[24]", "value": 91.2, "unit": "%"}, {"measurement": "Activity", "setting": "[25]", "value": 5.99, "unit": "%"}]}
